Experiments:
Type in all cases: cell-based, human
[1] = test system: DDIT3 promoter (−1507C); assay: Luciferase reporter activity in SK-N-MC cells stably transfected with pXP2 DDIT3(−1507C)-Luciferase (C1 cell line); settings: −1507C construct, stable SK-N-MC cells, 15 hours of treatment; ± standard error of the mean
Method: (§1) The cell lysate was assayed for the β-galactosidase activity, as an indicator of the transfection efficiency, and luciferase activity, as an indicator of the transcriptional activity of the promoters: • Assay of β-galactosidase activity. 50 μl of cell lysate are incubated in an E.L.I.S.A. plate with 50 μl of enzyme substrate (2 mM MgCl2—Merck—, 100 mM β-mercaptoethanol—Sigma—, 120 mM Na2HPO4, 80 mM NaH2PO4—both from Carlo Erba—and 1.33 mg/ml of ONPG (2-Nitrophenyl-β-D-galactopyranoside)—Sigma—). This reaction generates a colored product the concentration of which is measured as absorbance at 415 nm in an E.L.I.S.A. plate reader (Model 680, from BioRad). • Assay of luciferase activity. 40 μl of cell lysate are measured adding 100 μl of reagent of the enzyme (20 mM Tricin, […], 33.3 mM DTT, 270 μM Coenzyme A —all from Sigma—, 2.67 mM MgSO4, 0.1 mM EDTA—both from Merck—, 470 μM Luciferin potassium salt —Promega—and 530 μM ATP—Boehringer Mannheim—); alternatively, the one of the Luciferase Assay System kit—Promega—was used. The luminescence emission is recorded in a Monolight 2010 illuminometer (Analytical Luminescence Laboratory). […]
(§2) The clones resistant to the antibiotic are isolated by aspiration with an automatic pipette and seeded in an M24 for the expansion thereof. The expression of luciferase is analyzed and the lines having greater luciferase activity are maintained. […]

[2] = test system: DDIT3 promoter (−1507G); assay: Luciferase reporter activity in SK-N-MC cells stably transfected with pXP2 DDIT3(−1507G)-Luciferase (G7 cell line); settings: −1507G construct, stable SK-N-MC cells, 15 hours of treatment; ± standard error of the mean
Method: as §1, §2

[3] = test system: DDIT3 promoter; assay: Luciferase reporter activity in SK-N-MC cells transiently transfected with pXP2-DDIT3 constructs; settings: transient transfection, both allelic variants; alteration seen after 6 hours of treatment
Method: On the day before the transfection 2×10^5 cells per well are seeded in a 24-well plate (M24, from Falcon). 0.7 μg of DNA per well are transfected mixing the plasmids pXP2-DDIT3 and pSV-β-galactosidase in a 1:1 ratio (0.35 μg of pXP2 and 0.35 μg of β-gal) with Lipofectamine Plus (from Life Technologies), following the manufacturer's indications, in a 1:3 DNA:Lipofectamine ratio and allowing the cells to incubate with the plasmid for 5 hours. Twenty-four hours after the transfection the cells are treated to see the response to the stimulus. […]
as §1, with “50 μl of cell lysate are incubated in an E.L.I.S.A. plate with 50 μl of enzyme substrate (2 mM MgCl2—Merck—, 100 mM β-mercaptoethanol—Sigma—, 120 mM Na2HPO4, 80 mM NaH2PO4—both from Carlo Erba—and 1.33 mg/ml of ONPG (2-Nitrophenyl-β-D-galactopyranoside)—Sigma—).” left out, “used.” for “used. The luminescence emission is recorded in a Monolight 2010 illuminometer (Analytical Luminescence Laboratory).”

## Tunicamycin [ERS]
[1]
  Luciferase activity with respect to the non-treated cells (activation of the DDIT3 promoter): 4.6 ± 0.4 times
[2]
  Luciferase activity with respect to the non-treated cells (activation of the DDIT3 promoter): 3.4 ± 0.3 times
[3]
  Transcriptional activity of the DDIT3 promoter after treatment: increases significantly
